Reference: ChEMBL document CHEMBL1142432 (J Med Chem, 2008)
Values after ≈ are worked out from the molar mass of the structure shown.

Assays:
[1] = system: Mycobacterium tuberculosis; assay: Antimycobacterial activity against Mycobacterium tuberculosis H37Rv; format: functional
[2] = Aqueous solubility of the compound; format: physicochemical
Staphylococcus aureus = assay: Protection against methicillin-resistant Staphylococcus aureus infection in pneumonia patient; format: functional
[3] = Renal clearance in human; format: ADME, organism-based, Kidney; settings: in vivo, read-out: CL_renal
Homo sapiens = species: Homo sapiens; assay: Nonrenal clearance in human; format: ADME, organism-based; settings: in vivo
Canis familiaris [4] = assay: Toxicity in dog at 40 mg/kg, po for 30 days; format: organism-based, Canis lupus familiaris; design: dose 40 mg/kg, route oral; settings: in vivo, 720 h
Rattus norvegicus [5] = assay: Toxicity in rat at 20 mg/kg for 30 days; format: organism-based; design: dose 20 mg/kg; settings: in vivo, 720 h
Canis familiaris [6] = assay: Toxicity in dog at 20 mg/kg for 30 days; format: organism-based, Canis lupus familiaris; design: dose 20 mg/kg; settings: in vivo, 720 h
[7] = Elimination half life in human; format: ADME, organism-based; settings: in vivo
Plasma = assay: Plasma concentration in human at 600 mg, po bid; format: ADME, organism-based; settings: in vivo
[8] = Drug level in human urine; format: ADME, tissue-based; settings: read-out: Drug uptake
Enterococcus = assay: Protection against vancomycin-resistant Enterococcus infection in pneumonia patient; format: functional
[9] = Drug level in human lung epithelial lining fluid at 600 mg, po bid after 4 hrs; format: ADME, organism-based; settings: read-out: Drug uptake
[10] = biological target: T1, Amine oxidase [flavin-containing] A (Homo sapiens, UniProt P21397); assay: Inhibition of monoamine oxidase A
T1 sequence (P21397 whole entry): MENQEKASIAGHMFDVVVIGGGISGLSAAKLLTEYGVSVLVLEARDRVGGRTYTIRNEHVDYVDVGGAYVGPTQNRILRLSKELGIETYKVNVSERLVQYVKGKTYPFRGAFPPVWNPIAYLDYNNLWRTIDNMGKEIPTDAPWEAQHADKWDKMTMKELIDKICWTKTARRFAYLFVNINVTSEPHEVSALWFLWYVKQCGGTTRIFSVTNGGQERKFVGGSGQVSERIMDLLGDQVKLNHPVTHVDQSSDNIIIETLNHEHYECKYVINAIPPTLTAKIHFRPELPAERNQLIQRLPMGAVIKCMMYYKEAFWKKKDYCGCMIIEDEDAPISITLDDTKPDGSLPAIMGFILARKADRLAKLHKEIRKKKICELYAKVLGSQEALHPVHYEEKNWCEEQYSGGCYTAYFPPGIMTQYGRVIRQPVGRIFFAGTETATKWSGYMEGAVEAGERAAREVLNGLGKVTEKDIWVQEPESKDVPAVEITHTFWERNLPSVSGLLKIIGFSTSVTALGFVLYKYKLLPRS

Rattus norvegicus [11] = assay: Toxicity in rat at 50 mg/kg, po for 30 days; format: organism-based; design: dose 50 mg/kg, route oral; settings: in vivo, 720 h
[12] = Total clearance in human; format: ADME, organism-based; settings: in vivo
Rattus norvegicus [13] = assay: Toxicity in rat at 25 mg/kg for 30 days; format: organism-based; design: dose 25 mg/kg; settings: in vivo, 720 h
[14] = Oral bioavailability in dog at 25 mg/kg; format: ADME, organism-based, Canis lupus familiaris; settings: in vivo
Canis familiaris [15] = assay: Toxicity in dog at 25 mg/kg for 30 days; format: organism-based, Canis lupus familiaris; design: dose 25 mg/kg; settings: in vivo, 720 h

In the case of `CC(=O)NC[C@H]1CN(c2ccc(N3CCSCC3)c(F)c2)C(=O)O1` [SUTEZOLID], the MIC [1] is reported as ≤ 0.125 mg/L and the solubility [2] is reported as 0.2 mg/mL (≈ 566 µM).
With `CN[C@H](CC(C)C)C(=O)N[C@H]1C(=O)N[C@@H](CC(N)=O)C(=O)N[C@H]2C(=O)N[C@H]3C(=O)N[C@H](C(=O)N[C@H](C(=O)O)c4cc(O)cc(O)c4-c4cc3ccc4O)[C@H](O)c3ccc(c(Cl)c3)Oc3cc2cc(c3O[C@@H]2O[C@H](CO)[C@@H](O)[C@H](O)[C@H]2O[C@H]2C[C@](C)(N)[C@H](O)[C@H](C)O2)Oc2ccc(cc2Cl)[C@H]1O` [VANCOMYCIN] the Activity (Staphylococcus aureus) was 74%.
For `NNC(=O)c1ccncc1` [ISONIAZID], the MIC [1] was 0.2 mg/L (≈ 1.46 µM).
Work on `CC(=O)NC[C@H]1CN(c2ccc(N3CCOCC3)c(F)c2)C(=O)O1` [LINEZOLID] yielded a CL renal [3] of 30 mL/min, a CL (Homo sapiens) of 70 mL/min and an Efficacy (Staphylococcus aureus) of 77%. The Activity (Canis familiaris [4]) was “Non-toxic”, the Activity (Rattus norvegicus [5]) was “Non-toxic” and the Activity (Canis familiaris [6]) was “Non-toxic”. For the same compound, the half-life [7] was 5 h, the Cp (Plasma) was 7.3 µg/mL and the dose excreted [8] was 20%. It also gave an Efficacy (Enterococcus) of 88%, a concentration at 4 h [9] of 64.3 µg/mL and a Ki [10] of 55 µM. For the same compound, the Activity (Rattus norvegicus [11]) was “Non-toxic” and the clearance [12] was 100 mL/min.
In the case of `CC(=O)NC[C@H]1CN(c2ccc(N3CCN(C(=O)CO)CC3)c(F)c2)C(=O)O1` [EPEREZOLID], the Activity (Rattus norvegicus [13]) is reported as “Non-toxic”, the bioavailability [14] is reported as 100% and the Activity (Canis familiaris [15]) is reported as “Non-toxic”.
